Assay results from US5049560A, “Sulfonyl derivatives of thieno-triazolo-diazepines useful as anti-PAF and anti-ischemic agents” (priority 1989, dated 1991).

Legend:
[1] = tested on: platelet aggregation induced by PAF; assay: Inhibition of platelet aggregation induced by PAF; type: cell-based, New Zealand rabbits; details: Oryctolagus cuniculus, rabbit platelets, aggregometer at 57° C. [sic]
Experimental: 1) Inhibition of platelet aggregation induced by PAF
This experimentation was conducted according to the method of R. KINLOUGH. RATHBONE, J. P. CAZENAVE, M. PACKHAM and F. MUSTARD, Lab. Invest. 48, 98, 1980. In this test, New Zealand rabbits were used (male New Zealand rabbits of an average weight of 5 kg).
The determinations are made on a chrono-log Coultronics aggregometer, at […] coupled with a graphic recorder; the results of these determinations (in molecular concentration) are reported on the table I on the central column.

[2] = Toxicity on mice; details: mouse, in vivo, IP
Text: None of these compounds of this invention was toxic per os at dose of 1 g/kg on mice.
None of the compounds was toxic IP at the dose of 1 g/kg on mice with the exception of the examples 1, 5 and 10 for which the LD 50 was comprised between 0.5 and 1 g/kg.

[3] = Solubility; type: physicochemical
Experimental: Yield 38 g (85%) of an orange powder melting at 80° C. (Tottoli) insoluble in water at room temperature but soluble in DMSO.

[4] = tested on: omega 3 sites; assay: Global ischemia on gerbils; type: in vivo, gerbil; details: Meriones unguiculatus, 168 h; both carotides clamped 10 minutes; hippocampes taken one week later; 3H-PK 11195 2 nM; compared to control; significance marks (*, **, ***, NS) given; read-out: Global protection in %
Experimental: 3) Global ischemia on gerbils
For this test, males gerbilles were anaesthetized with brietal at the doses of 35 mg/kg IP; thereafter, both carotides were clamped for 10 minutes, then the clamping was released. Treated animals received each 10 mg/kg of the compounds of one of the examples.
One week later, the animals were killed and both hippocampes were taken, weighed and frozen at -80° C.
After crushing with 1 ml of TRIS-HCl buffer pH 7.4 for 30 secondes, aliquots of each 50 μl of this preparation were incubed in each 1 ml of TRIS-HCl buffer containing ^3 H-PK 11195 at 2 nM (90 Ci/mmole, NENE, Germany) for 1 hour at 25° C. For each preparation, 3 determinations were made. The density of omega 3 sites (marked by the specific ^3 H PK 11195 marker) are expressed in f-moles of PK 11195/mg of fresh tissues and converted in percentage of protection compared to control.

SMILES | IC50 [1] | LD50 [2] | solubility in DMSO ([3]; DMSO) | solubility in water ([3]; water, room temperature) | inhibition in vivo at 10 mg/kg [4]
CCCCCCCCCCCCCCCCS(=O)(=O)N1CCc2c(sc3c2C(c2ccccc2Cl)=NCc2nnc(C)n2-3)C1 [Example 1, 6-(2-chlorophenyl)-9-hexadecylsulphonyl-7,8,9,10-tetrahydro-1-methyl 4H-pyrido [4',3':4,5] thieno [3,2-f] 1,2,4-triazolo [4,3-a] 1,4-diazepine] | 96.3 nM | 500 to 1000 mg/kg | soluble | insoluble | 
Cc1nnc2n1-c1sc3c(c1C(c1ccccc1Cl)=NC2)CCN(S(=O)(=O)c1ccccc1)C3 [Example 2, 6-(2-chlorophenyl)-9-phenylsulphonyl-7,8,9,10-tetrahydro-1-methyl 4H-pyrido [4',3':4,5] thieno [3,2-f] 1,2,4-triazolo [4,3-a] 1,4-diazepine] | 225 nM |  |  |  | 38.3%
Cc1nnc2n1-c1sc3c(c1C(c1ccccc1Cl)=NC2)CCN(S(=O)(=O)c1c(Cl)cc(Cl)cc1Cl)C3 [Example 3, 6-(2-chlorophenyl)-9-(2,4,6-trichloro)phenylsulphonyl-7,8,9,10-tetrahydro-1-methyl 4H-pyrido [4',3':4,5] thieno [3,2-f] 1,2,4-triazolo [4,3-a] 1,4-diazepine] | 37.1 nM |  |  |  | 33.3%
Cc1nnc2n1-c1sc3c(c1C(c1ccccc1Cl)=NC2)CCN(S(=O)(=O)c1ccc(C(F)(F)F)cc1)C3 [Example 4, 6-(2-chlorophenyl)-9-(trifluoromethyl)phenylsulphonyl-7,8,9,10-tetrahydro-1-methyl 4H-pyrido [4',3':4,5] thieno [3,2-f] 1,2,4-triazolo [4,3-a] 1,4-diazepine] | 98.2 nM |  |  |  | 38.7%
COc1ccc(S(=O)(=O)N2CCc3c(sc4c3C(c3ccccc3Cl)=NCc3nnc(C)n3-4)C2)c(OC)c1OC [Example 5, 6-(2-chlorophenyl)-9-(4,5,6-trimethoxy)phenylsulphonyl-7,8,9,10-tetrahydro-1-methyl 4H-pyrido [4',3':4,5] thieno [3,2-f] 1,2,4-triazolo [4,3-a] 1,4-diazepine] | 187 nM | 500 to 1000 mg/kg |  |  | 28.1%
Cc1nnc2n1-c1sc3c(c1C(c1ccccc1Cl)=NC2)CCN(S(=O)(=O)c1ccc(C(C)(C)C)cc1)C3 [Example 6, 6-(2-chlorophenyl)-9-(4-tert.butyl)phenylsuphonyl-7,8,9,10-tetrahydro-1-methyl 4H-pyrido [4',3':4,5] thieno [3,2-f] 1,2,4-triazolo [4,3-a] 1,4-diazepine] | 117 nM |  |  |  | 13.8%
COc1ccc(S(=O)(=O)N2CCc3c(sc4c3C(c3ccccc3Cl)=NCc3nnc(C)n3-4)C2)cc1OC [Example 7, 6-(2-chlorophenyl)-9-(3,4-dimethoxy)phenylsulphonyl-7,8,9,10-tetrahydro-1-methyl 4H-pyrido [4',3':4,5] thieno [3,2-f] 1,2,4-triazolo [4,3-a] 1,4 diazepine] | 119 nM |  |  |  | 26.6%
Cc1cc(C)c(S(=O)(=O)N2CCc3c(sc4c3C(c3ccccc3Cl)=NCc3nnc(C)n3-4)C2)c(C)c1 [Example 8, 6-(2-chlorophenyl)-9-(2,4,6-trimethyl)phenylsulphonyl-7,8,9,10-tetrahydro-1-methyl 4H-pyrido [4',3':4,5] thieno [3,2-f] 1,2,4-triazolo [4,3-a] 1,4-diazepine] | 25.1 nM |  |  |  | 30.5%
COc1ccc(S(=O)(=O)N2CCc3c(sc4c3C(c3ccccc3Cl)=NCc3nnc(C)n3-4)C2)cc1 [Example 9, 6-(2-chlorophenyl)-9-(4-methoxy)phenylsulphonyl-7,8,9,10-tetrahydro-1-methyl 4H-pyrido [4',3':4,5] thieno [3,2-f] 1,2,4-triazolo [4,3-a] 1,4-diazepine] | 122 nM |  |  |  | 9.4%
Cc1nnc2n1-c1sc3c(c1C(c1ccccc1Cl)=NC2)CCN(S(=O)(=O)c1ccc(Oc2ccc([N+](=O)[O-])cc2)cc1)C3 [Example 10, 6-(2-chlorophenyl)-9-[4-(4'-nitrophenoxy)]phenylsulphonyl-7,8,9,10-tetrahydro-1-methyl 4H-pyrido [4',3':4,5] thieno [3,2-f] 1,2,4-triazolo [4,3-a] 1,4-diazepine] | 1.41 nM | 500 to 1000 mg/kg |  |  | 19.3%
Cc1nnc2n1-c1sc3c(c1C(c1ccccc1Cl)=NC2)CCN(S(=O)(=O)c1cccs1)C3 [Example 11, 6-(2-chlorophenyl)-9-α-thienylphenylsulphonyl-7,8,9,10-tetrahydro-1-methyl 4H-pyrido [4',3':4,5] thieno [3,2-f] 1,2,4-triazolo [4,3-a] 1,4-diazepine] | 144 nM |  |  |  | 32.7%
Cc1nnc2n1-c1sc3c(c1C(c1ccccc1Cl)=NC2)CCN(S(=O)(=O)c1ccco1)C3 [Example 12, 6-(2-chlorophenyl)-9-α-furylphenylsulphonyl-7,8,9,10-tetrahydro-1-methyl 4H-pyrido [4',3':4,5] thieno [3,2-f] 1,2,4-triazolo [4,3-a] 1,4-diazepine] | 110 nM |  |  |  | 21.4%
Cc1nnc2n1-c1sc3c(c1C(c1ccccc1Cl)=NC2)CCN(S(=O)(=O)c1ccc[nH]1)C3 [Example 13, 6-(2-chlorophenyl)-9-(α-pyrrolyl)sulphonyl-7,8,9,10-tetrahydro-1-methyl-4H-pyrido [4',3':4,5] thieno [3,2-f] 1,2,4-triazolo [4,3-a] 1,4-diazepine] | 215 nM |  |  |  | 29.3%
Cc1nnc2n1-c1sc3c(c1C(c1ccccc1Cl)=NC2)CCN(S(=O)(=O)c1cccc2cccnc12)C3 [Example 14, 6-(2-chlorophenyl)-9-(8-quinolyl)sulfonyl-7,8,9,10-tetrahydro-1-methyl-4H-pyrido-[4',3':4,5] thieno [3,2-f] 1,2,4-triazolo [4,3-a] 1,4-diazepine] | 65 nM |  |  |  | 17.4%
Cc1nnc2n1-c1sc3c(c1C(c1ccccc1Cl)=NC2)CCN(S(=O)(=O)c1ccc2ccccc2c1)C3 [Example 15, 6-(2-chlorophenyl)-9-(2-naphtyl)sulphonyl-7,8,9,10-tetrahydro-1-methyl-4H-pyrido [4',3':4,5] thieno [3,2-f] 1,2,4-triazolo [4,3-a] 1,4-diazepine] | 431 nM |  |  |  | 34.8%
Cc1nnc2n1-c1sc3c(c1C(c1ccccc1Cl)=NC2)CCN(S(=O)(=O)c1ccc(C(=O)O)cc1)C3 [Example 16, 6-(2-chlorophenyl)-9-(4-carboxy)phenylsulphonyl-7,8,9,10-tetrahydro-1-methyl-4H-pyrido [4',3':4,5] thieno [3,2-f] 1,2,4-triazolo [4,3-a] 1,4-diazepine] | 20.1 nM |  |  |  | 23.9%
Cc1nnc2n1-c1sc3c(c1C(c1ccccc1Cl)=NC2)CCN(S(=O)(=O)c1ccc(Oc2ccc(C(=O)O)cc2)cc1)C3 [Example 17, 6-(2-chlorophenyl)-9-[4-(4'-(carboxy)phenyloxy)phenyl] sulphonyl-7,8,9,10-tetrahydro-1-methyl-4H-pyrido [4',3':4,5] thieno [3,2-f] 1,2,4-triazolo [4,3-a] 1,4-diazepine] | 472 nM |  |  |  | 7.8%
COc1cc(OC)c(S(=O)(=O)N2CCc3c(sc4c3C(c3ccccc3Cl)=NCc3nnc(C)n3-4)C2)cc1SC [Example 18, 6-(2-chlorophenyl)-9-[5-methylthio 2,4-dimethoxy]phenyl sulphonyl-7,8,9,10-tetrahydro-1-methyl-4H-pyrido [4',3':4,5] thieno [3,2-f] 1,2,4-triazolo [4,3-a] 1,4-diazepine] | 22.2 nM |  |  |  | 10%
COc1cc(OC)c(S(=O)(=O)N2CCc3c(sc4c3C(c3ccccc3Cl)=NCc3nnc(C)n3-4)C2)cc1S(C)(=O)=O [Example 19, 6-(2-chlorophenyl)-9-[5-mesyl 2,4-dimethoxy]phenylsulphonyl-7,8,9,10-tetrahydro-1-methyl-4H-pyrido [4',3':4,5] thieno [3,2-f] 1,2,4-triazolo [4,3-a] 1,4-diazepine] | 375 nM |  |  |  | 8.4%
Cc1nnc2n1-c1sc3c(c1C(c1ccccc1Cl)=NC2)CCN(S(=O)(=O)C(C)C)C3 [Example 20, 6-(2-chlorophenyl)-9-isopropylsulfonyl-7,8,9,10-tetrahydro-1-methyl-4H-pyrido [4',3':4,5] thieno [3,2-f] 1,2,4-triazolo [4,3-a] 1,4-diazepine] | 517 nM |  |  |  | 47.5%
